Reference: the supplement of paper PMC9663587

Key:
[1] = compound: CN(C)CC[C@H](CSc1ccccc1)Nc1ccc(S(=O)(=O)NC(=O)c2ccc(N3CCN(Cc4ccccc4-c4ccc(Cl)cc4)CC3)cc2)cc1[N+](=O)[O-] [ABT-737]
[2] = compound: CN1CCN(CCOc2cc(OC3CCOCC3)c3c(Nc4c(Cl)ccc5c4OCO5)ncnc3c2)CC1 [Saracatinib/AZD0530]
[3] = compound: T1, CN1CC[C@H](c2c(O)cc(O)c3c(=O)cc(-c4ccccc4Cl)oc23)[C@H](O)C1 [Flavopiridol]
[4] = compound: Cc1nc(-c2cn3c(n2)-c2ccc(-c4cnn(C(C)(C)C(N)=O)c4)cc2OCC3)n(C(C)C)n1 [Taselisib/GDC0032]
[5] = compound: CO[C@@H](C)Cn1c(=O)n(C)c2cnc3ccc(-c4cncc(C(C)(C)O)c4)cc3c21
[6] = compound: CC(=O)c1c(C)c2cnc(Nc3ccc(N4CCN(CCOCCOCCOCCNC(=O)COc5cccc6c5C(=O)N(C5CCC(=O)NC5=O)C6=O)CC4)cn3)nc2n(C2CCCC2)c1=O [BSJ-03-123]; assay: GR value, 72 h; higher = faster growth (1 = untreated, <0 = killing);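 further: breast cancer and non-malignant breast epithelial lines, nine half-log doses, viable cells counted by Hoechst and LIVE/DEAD dye imaging versus time-zero plates and DMSO controls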
[7] = compound: CC(=O)c1c(C)c2cnc(Nc3ccc(N4CCNCC4)cn3)nc2n(C2CCCC2)c1=O; assay: as above
[8] = compound: CCc1cnn2c(NCc3ccc[n+]([O-])c3)cc(N3CCCC[C@H]3CCO)nc12; assay: as above
[9] = compound: CCN1CCN(Cc2ccc(Nc3ncc(F)c(-c4cc(F)c5nc(C)n(C(C)C)c5c4)n3)nc2)CC1; assay: as above
[10] = compound: T1, Flavopiridol; assay: as above
[11] = compound: CN(C)C/C=C/C(=O)Nc1ccc(C(=O)Nc2cccc(Nc3ncc(Cl)c(-c4c[nH]c5ccccc45)n3)c2)cc1 [THZ1]; assay: as above
[12] = compound: CCOc1cc2ncc(C#N)c(Nc3ccc(OCc4ccccn4)c(Cl)c3)c2cc1NC(=O)/C=C/CN(C)C [Neratinib/HKI272]; assay: as above
[13] = compound: C=CC(=O)Nc1ccc(C(=O)Nc2[nH]nc3c2CN(C(=O)N[C@H](CN(C)C)c2ccccc2)C3(C)C)cc1 [YKL-5-124]; assay: as above
[14] = compound: CN(C)C(=O)c1cc2cnc(Nc3ccc(N4CCNCC4)cn3)nc2n1C1CCCC1 [LEE011/Ribociclib]; assay: as above
[15] = compound: CN(C)C/C=C/C(=O)Nc1ccc(C(=O)N2CCC[C@@H](Nc3ncc(Cl)c(-c4c[nH]c5ccccc45)n3)C2)cc1 [THZ531]; assay: as above
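Wherever GR50, 72 h is given: breast cancer and non-malignant breast epithelial cell lines, Deep Dye Drop or Dye Drop imaging, nine half-log doses, GR normalized to time-zero plates and DMSO-only controls.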

SUM1315
GR50, 72 h [1]: 5.96 µM
GR50, 72 h [2]: 1.39 µM
GR50, 72 h [3]: 0.104 µM
GR50, 72 h [4]: 0.516 µM
GR50, 72 h [5]: 0.00919 µM
GR value ([6]; 0.001 µM): 0.883 GR
GR value ([6]; 0.003162 µM): 0.736 GR
GR value ([6]; 0.01 µM): 0.79 GR
GR value ([6]; 0.03162 µM): 0.651 GR
GR value ([6]; 0.1 µM): 0.822 GR
GR value ([6]; 0.3162 µM): 0.641 GR
GR value ([6]; 1 µM): 0.497 GR
GR value ([6]; 3.162 µM): 0.572 GR
GR value ([6]; 10 µM): 0.21 GR
GR value ([7]; 0.0003162 µM): 1.07 GR
GR value ([7]; 0.001 µM): 0.996 GR
GR value ([7]; 0.003162 µM): 0.938 GR
GR value ([7]; 0.01 µM): 0.855 GR
GR value ([7]; 0.03162 µM): 0.593 GR
GR value ([7]; 0.1 µM): 0.522 GR
GR value ([7]; 0.3162 µM): 0.365 GR
GR value ([7]; 1 µM): 0.417 GR
GR value ([7]; 3.162 µM): 0.293 GR
GR value ([8]; 0.0001 µM): 1.11 GR
GR value ([8]; 0.0003162 µM): 0.993 GR
GR value ([8]; 0.001 µM): 1.01 GR
GR value ([8]; 0.003162 µM): 0.916 GR
GR value ([8]; 0.01 µM): 0.617 GR
GR value ([8]; 0.03162 µM): -0.616 GR
GR value ([8]; 0.1 µM): -0.644 GR
GR value ([8]; 0.3162 µM): -0.639 GR
GR value ([8]; 1 µM): -0.664 GR
GR value ([9]; 0.001 µM): 1.08 GR
GR value ([9]; 0.003162 µM): 0.8 GR
GR value ([9]; 0.01 µM): 0.704 GR
GR value ([9]; 0.03162 µM): 0.436 GR
GR value ([9]; 0.1 µM): 0.402 GR
GR value ([9]; 0.3162 µM): 0.259 GR
GR value ([9]; 1 µM): 0.177 GR
GR value ([9]; 3.162 µM): 0.109 GR
GR value ([9]; 10 µM): -0.164 GR
GR value ([10]; 0.0001 µM): 1.09 GR
GR value ([10]; 0.0003162 µM): 0.97 GR
GR value ([10]; 0.001 µM): 0.741 GR
GR value ([10]; 0.003162 µM): 0.795 GR
GR value ([10]; 0.01 µM): 0.876 GR
GR value ([10]; 0.03162 µM): 0.76 GR
GR value ([10]; 0.1 µM): 0.647 GR
GR value ([10]; 0.3162 µM): -0.451 GR
GR value ([10]; 1 µM): -0.887 GR
GR value ([11]; 0.0001 µM): 1.24 GR
GR value ([11]; 0.0003162 µM): 1.06 GR
GR value ([11]; 0.001 µM): 1.06 GR
GR value ([11]; 0.003162 µM): 0.773 GR
GR value ([11]; 0.01 µM): 0.999 GR
GR value ([11]; 0.03162 µM): 0.982 GR
GR value ([11]; 0.1 µM): 0.978 GR
GR value ([11]; 0.3162 µM): 0.391 GR
GR value ([11]; 1 µM): -0.906 GR
GR value ([12]; 0.0003162 µM): 1.07 GR
GR value ([12]; 0.001 µM): 0.992 GR
GR value ([12]; 0.003162 µM): 1.01 GR
GR value ([12]; 0.01 µM): 0.908 GR
GR value ([12]; 0.03162 µM): 0.69 GR
GR value ([12]; 0.1 µM): 0.517 GR
GR value ([12]; 0.3162 µM): 0.309 GR
GR value ([12]; 1 µM): 0.162 GR
GR value ([12]; 3.162 µM): 0.101 GR
GR value ([13]; 0.001 µM): 0.771 GR
GR value ([13]; 0.003162 µM): 0.514 GR
GR value ([13]; 0.01 µM): 0.439 GR
GR value ([13]; 0.03162 µM): 0.478 GR
GR value ([13]; 0.1 µM): 0.393 GR
GR value ([13]; 0.3162 µM): 0.264 GR
GR value ([13]; 1 µM): 0.133 GR
GR value ([13]; 3.162 µM): 0.0326 GR
GR value ([13]; 10 µM): -0.443 GR
GR value ([14]; 0.001 µM): 0.841 GR
GR value ([14]; 0.003162 µM): 0.69 GR
GR value ([14]; 0.01 µM): 0.764 GR
GR value ([14]; 0.03162 µM): 0.763 GR
GR value ([14]; 0.1 µM): 0.671 GR
GR value ([14]; 0.3162 µM): 0.57 GR
GR value ([14]; 1 µM): 0.582 GR
GR value ([14]; 3.162 µM): 0.527 GR
GR value ([14]; 10 µM): 0.445 GR
GR value ([15]; 0.0001 µM): 0.9 GR
GR value ([15]; 0.0003162 µM): 1.1 GR
GR value ([15]; 0.001 µM): 0.822 GR
GR value ([15]; 0.003162 µM): 0.987 GR
GR value ([15]; 0.01 µM): 1.1 GR
GR value ([15]; 0.03162 µM): 1.14 GR
GR value ([15]; 0.1 µM): 1.04 GR
GR value ([15]; 0.3162 µM): 0.685 GR
GR value ([15]; 1 µM): -0.604 GR
